Data set [1] is described as follows: 1H NMR qualitative studies for free drug. The class given is physicochemical. The following applies: D2O; drug peaks evident in CDCl3. How it is done: To determine the absence of free drug in the outer aqueous environment, qualitative studies were conducted. Qualitative proton nuclear magnetic resonance (NMR) studies were conducted with Varian 400 MHz NMR. Deuterated chloroform and water as solvent systems were used to resuspend the formulation and NMR studies were performed.

Data set [2] is described as follows: Ocular tissue distribution of RX-10045 / RX-10008 (LC-MS/MS). The class given is in vivo, rabbit. The following applies: topical ocular RX-10045 formulations 4×/day for 5 days, rabbits. On the procedure:
A study was conducted in rabbits to test the tolerance and ocular tissue distribution of two nanomicellar formulations of compound 1001 (RX10045) against matching placebos (Table 7a and 7b) and balanced saline solution (BSS). Healthy New Zealand female white rabbits (2-3 kg) were used for this study. One drop (approximately 35 μL) of study drug was applied o.d. 4×/day at two hour intervals for 5 days. One drop of BSS was applied to the contralateral eye.
Selected ocular fluids/tissues (aqueous humor, vitreous humor, conjunctiva, cornea, iris-ciliary body, lens, retina/choroid, and sclera) collected from two rabbits each in the RX-10045 (0.15% in HCO-60, 0.1% in HCO-40) treatment groups, and from one rabbit in each of the matching placebo groups, were assayed for compound 1001 and another resolvin by liquid chromatography-tandem mass spectrometry (LC-MS/MS). Warfarin-d5 and 5-HDA were used as internal standards for the analysis of RX-10045 and its active metabolite, RX-10008, respectively, in aqueous humor and vitreous humor. For the other ocular tissues (solid tissues), warfarin-d5 and phenyl acetic acid-d5 (PAA-d5) were used as the internal standards for compound 1001 and RX-10008, respectively. The analytical range for the solid tissues were 0.125-100 ng. The results of the solid tissue analyses were converted to ng/g by correcting for the amount of tissue analyzed.

Experimental findings from patent US20200009137A1, “TOPICAL FORMULATIONS AND USES THEREOF” (SUN PHARMA GLOBAL FZE, priority 2015, published 2020) are described below.

With `C#CC[C@@H](O)/C=C/C=C/C#C[C@@H](O)CCCC(=O)OC(C)C` [compound 1001], the “Free drug when MNF is resuspended in aqueous solution (qualitative proton NMR)” value in data set [1] was “not freely available”. Further, the “Compound 1001 in the majority of ocular tissues” value in data set [2] is on record as “either not detected or was below the quantitation limit of the assay”.
